Reference: ChEMBL document CHEMBL1128849, “Synthesis and antibacterial activity of men 10700, a new penem antibiotic” (1995)
Converted amounts (≈) assume the structure as drawn.

Tests used:
Escherichia coli [1] = assay: In vitro antibacterial activity against Escherichia. coli L; type: functional
Staphylococcus aureus [2] = assay: In vitro antibacterial activity against Staphylococcus aureus MR13; type: functional
Proteus vulgaris = assay: In vitro antibacterial activity against Proteus vulgaris; type: functional
Escherichia coli [3] = assay: In vitro antibacterial activity against Escherichia. coli SHV; type: functional
Escherichia coli [4] = assay: In vitro antibacterial activity against Escherichia coli; type: functional
Listeria monocytogenes = assay: In vitro antibacterial activity against Listeria monocytogenes; type: functional
Yersinia sp. = assay: In vitro antibacterial activity against Yersinia species; type: functional, yersinia spp; settings: Yersinia sp. (in: enterobacteria)
[5] = test system: Staphylococcus epidermidis; assay: In vitro antibacterial activity against Staphylococcus epidermidis; type: functional
Staphylococcus aureus [6] = assay: In vitro antibacterial activity against Staphylococcus aureus MR; type: functional
Streptococcus pneumoniae = assay: In vitro antibacterial activity against Streptococcus pneumoniae; type: functional
Proteus mirabilis = assay: In vitro antibacterial activity against Proteus mirabilis; type: functional
Klebsiella pneumoniae = assay: In vitro antibacterial activity against Klebsiella pneumoniae; type: functional
Escherichia coli [7] = assay: In vitro antibacterial activity against Escherichia. coli ATCC 25922; type: functional
Pseudomonas aeruginosa [8] = assay: In vitro antibacterial activity against Pseudomonas aeruginosa G242; type: functional
Enterococcus faecalis [9] = assay: In vitro antibacterial activity against Enterococcus faecalis; type: functional
[10] = test system: Stenotrophomonas maltophilia; assay: In vitro antibacterial activity against Xanthomonas maltophilia; type: functional
Streptococcus agalactiae = assay: In vitro antibacterial activity against Streptococcus agalactiae B; type: functional
Haemophilus influenzae = assay: In vitro antibacterial activity against Haemophilus influenzae; type: functional
Enterococcus faecalis [11] = assay: In vitro antibacterial activity against Enterococcus faecalis ATCC 29212; type: functional
Providencia rettgeri = assay: In vitro antibacterial activity against Providencia rettgerii; type: functional
Providencia stuartii = assay: In vitro antibacterial activity against Providencia stuartii; type: functional
Citrobacter freundii = assay: In vitro antibacterial activity against Citrobacter freundii; type: functional
Aeromonas sp. = assay: In vitro antibacterial activity against Aeromonas species.; type: functional
Pseudomonas aeruginosa [12] = assay: In vitro antibacterial activity against Pseudomonas aeruginosa ATCC 27853; type: functional
Pseudomonas aeruginosa [13] = assay: In vitro antibacterial activity against Pseudomonas aeruginosa VR5; type: functional
Staphylococcus aureus [14] = assay: In vitro antibacterial activity against Staphylococcus aureus ATCC 25923; type: functional
Klebsiella aerogenes = assay: In vitro antibacterial activity against Enterobacter aerogenes; type: functional
Pseudomonas aeruginosa [15] = assay: In vitro antibacterial activity against Pseudomonas aeruginosa; type: functional
Escherichia coli [16] = assay: In vitro antibacterial activity against Escherichia. coli TEM1; type: functional
Escherichia coli [17] = assay: In vitro antibacterial activity against Escherichia. coli TEM2; type: functional
Staphylococcus aureus [18] = assay: In vitro antibacterial activity against Staphylococcus aureus MS; type: functional
Clostridium perfringens = assay: In vitro antibacterial activity against Clostridium perfringens; type: functional
Streptococcus pyogenes = assay: In vitro antibacterial activity against Streptococcus pyogenes A; type: functional
Moraxella catarrhalis = assay: In vitro antibacterial activity against Branhamella catarrhalis; type: functional
Morganella morganii = assay: In vitro antibacterial activity against Morganella morganii; type: functional
Staphylococcus aureus [19] = assay: In vitro antibacterial activity against Staphylococcus aureus ATCC 29213; type: functional
Bacteroides fragilis = assay: In vitro antibacterial activity against Bacteroides fragilis; type: functional
Enterococcus faecium = assay: In vitro antibacterial activity against Enterococcus faecium; type: functional
Staphylococcus aureus [20] = assay: In vitro antibacterial activity against Staphylococcus aureus MR09; type: functional
[21] = test system: Acinetobacter calcoaceticus subsp. anitratus; assay: In vitro antibacterial activity against Acinetobacter anitratus; type: functional
Escherichia coli [22] = assay: In vitro antibacterial activity against Escherichia. coli DC2; type: functional
Pseudomonas aeruginosa [23] = assay: microbe, parasite or virus in culture; settings: ATCC 27853

Compound: CC1(C)S[C@@H]2[C@H](NC(=O)[C@H](N)c3ccccc3)C(=O)N2[C@H]1C(=O)O.CC1(C)[C@H](C(=O)O)N2C(=O)C[C@H]2S1(=O)=O
- MIC (Escherichia coli [1]): 8 µg/mL
- MIC (Staphylococcus aureus [2]): 0.12 µg/mL
- MIC90 (Proteus vulgaris): 8 µg/mL
- MIC (Escherichia coli [3]): > 32 µg/mL
- MIC90 (Escherichia coli [4]): 8 µg/mL
- MIC90 (Listeria monocytogenes): 0.5 µg/mL
- MIC90 (Yersinia sp.): 32 µg/mL
- MIC90 [5]: 4 µg/mL
- MIC90 (Staphylococcus aureus [6]): 32 µg/mL
- MIC90 (Streptococcus pneumoniae): 0.03 µg/mL
- MIC90 (Proteus mirabilis): 32 µg/mL
- MIC90 (Klebsiella pneumoniae): 16 µg/mL
- MIC (Escherichia coli [7]): 8 µg/mL
- MIC (Pseudomonas aeruginosa [8]): > 32 µg/mL
- MIC90 (Enterococcus faecalis [9]): 2 µg/mL
- MIC90 [10]: > 64 µg/mL
- MIC90 (Streptococcus agalactiae): 0.06 µg/mL
- MIC90 (Haemophilus influenzae): 1 µg/mL
- MIC (Enterococcus faecalis [11]): 1 µg/mL
- MIC90 (Providencia rettgeri): 32 µg/mL
- MIC90 (Providencia stuartii): 64 µg/mL
- MIC90 (Citrobacter freundii): > 64 µg/mL
- MIC90 (Aeromonas sp.): > 32 µg/mL
- MIC (Pseudomonas aeruginosa [12]): 32 µg/mL
- MIC (Pseudomonas aeruginosa [13]): 0.12 µg/mL
- MIC (Staphylococcus aureus [14]): 0.03 µg/mL
- MIC90 (Klebsiella aerogenes): > 64 µg/mL
- MIC90 (Pseudomonas aeruginosa [15]): > 64 µg/mL
- MIC (Escherichia coli [16]): > 32 µg/mL
- MIC (Escherichia coli [17]): 8 µg/mL
- MIC90 (Staphylococcus aureus [18]): 1 µg/mL
- MIC90 (Clostridium perfringens): 0.12 µg/mL
- MIC90 (Streptococcus pyogenes): 0.03 µg/mL
- MIC90 (Moraxella catarrhalis): 0.5 µg/mL
- MIC90 (Morganella morganii): 16 µg/mL
- MIC (Staphylococcus aureus [19]): 0.25 µg/mL
- MIC90 (Bacteroides fragilis): 4 µg/mL
- MIC90 (Enterococcus faecium): > 64 µg/mL
- MIC (Staphylococcus aureus [20]): 4 µg/mL
- MIC90 [21]: 32 µg/mL

Compound: C[C@@H](O)[C@H]1C(=O)N2C(C(=O)O)=C(CN(C)CC(N)=O)SC12 (stereo partly specified)
- MIC (Escherichia coli [1]): 0.25 µg/mL (≈ 0.793 µM)
- MIC (Staphylococcus aureus [2]): 0.06 µg/mL (≈ 0.19 µM)
- MIC90 (Proteus vulgaris): 2 µg/mL (≈ 6.34 µM)
- MIC (Escherichia coli [3]): 0.5 µg/mL (≈ 1.59 µM)
- MIC90 (Escherichia coli [4]): 0.25 µg/mL (≈ 0.793 µM)
- MIC90 (Listeria monocytogenes): 0.5 µg/mL (≈ 1.59 µM)
- MIC90 (Yersinia sp.): 0.5 µg/mL (≈ 1.59 µM)
- MIC90 [5]: 0.015 µg/mL (≈ 0.0476 µM)
- MIC90 (Staphylococcus aureus [6]): 4 µg/mL (≈ 12.7 µM)
- MIC90 (Streptococcus pneumoniae): 0.06 µg/mL (≈ 0.19 µM)
- MIC90 (Proteus mirabilis): 1 µg/mL (≈ 3.17 µM)
- MIC90 (Klebsiella pneumoniae): 0.5 µg/mL (≈ 1.59 µM)
- MIC (Escherichia coli [7]): 0.25 µg/mL (≈ 0.793 µM)
- MIC (Pseudomonas aeruginosa [8]): 4 µg/mL (≈ 12.7 µM)
- MIC (Escherichia coli [22]): 0.25 µg/mL (≈ 0.793 µM)
- MIC90 (Enterococcus faecalis [9]): 8 µg/mL (≈ 25.4 µM)
- MIC90 [10]: > 64 µg/mL
- MIC90 (Streptococcus agalactiae): 0.06 µg/mL (≈ 0.19 µM)
- MIC90 (Haemophilus influenzae): 2 µg/mL (≈ 6.34 µM)
- MIC (Enterococcus faecalis [11]): 4 µg/mL (≈ 12.7 µM)
- MIC90 (Providencia rettgeri): 2 µg/mL (≈ 6.34 µM)
- MIC90 (Providencia stuartii): 2 µg/mL (≈ 6.34 µM)
- MIC90 (Citrobacter freundii): 1 µg/mL (≈ 3.17 µM)
- MIC90 (Aeromonas sp.): 1 µg/mL (≈ 3.17 µM)
- MIC (Pseudomonas aeruginosa [12]): > 32 µg/mL
- MIC (Pseudomonas aeruginosa [13]): 0.5 µg/mL (≈ 1.59 µM)
- MIC (Staphylococcus aureus [14]): < 0.03 µg/mL
- MIC90 (Klebsiella aerogenes): 2 µg/mL (≈ 6.34 µM)
- MIC90 (Pseudomonas aeruginosa [15]): > 64 µg/mL
- MIC (Escherichia coli [16]): 0.25 µg/mL (≈ 0.793 µM)
- MIC (Escherichia coli [17]): 0.5 µg/mL (≈ 1.59 µM)
- MIC90 (Staphylococcus aureus [18]): 0.0075 µg/mL (≈ 0.0238 µM)
- MIC90 (Clostridium perfringens): 0.5 µg/mL (≈ 1.59 µM)
- MIC90 (Streptococcus pyogenes): 0.06 µg/mL (≈ 0.19 µM)
- MIC90 (Moraxella catarrhalis): 0.25 µg/mL (≈ 0.793 µM)
- MIC90 (Morganella morganii): 2 µg/mL (≈ 6.34 µM)
- MIC (Staphylococcus aureus [19]): 0.06 µg/mL (≈ 0.19 µM)
- MIC90 (Bacteroides fragilis): 2 µg/mL (≈ 6.34 µM)
- MIC90 (Enterococcus faecium): > 64 µg/mL
- MIC (Staphylococcus aureus [20]): 1 µg/mL (≈ 3.17 µM)
- MIC90 [21]: 16 µg/mL (≈ 50.7 µM)

Compound: C[C@@H](O)[C@H]1C(=O)N2C(C(=O)O)=C(SCCNC=N)C[C@H]12 [IMIPENEM ANHYDROUS]
- MIC (Escherichia coli [1]): 0.12 µg/mL (≈ 0.401 µM)
- MIC (Staphylococcus aureus [2]): 0.12 µg/mL (≈ 0.401 µM)
- MIC (Pseudomonas aeruginosa [23]): 1 µg/mL (≈ 3.34 µM)
- MIC90 (Proteus vulgaris): 2 µg/mL (≈ 6.68 µM)
- MIC (Escherichia coli [3]): 0.25 µg/mL (≈ 0.835 µM)
- MIC90 (Escherichia coli [4]): 0.12 µg/mL (≈ 0.401 µM)
- MIC90 (Listeria monocytogenes): 0.03 µg/mL (≈ 0.1 µM)
- MIC90 (Yersinia sp.): 0.25 µg/mL (≈ 0.835 µM)
- MIC90 [5]: 0.25 µg/mL (≈ 0.835 µM)
- MIC90 (Staphylococcus aureus [6]): > 32 µg/mL
- MIC90 (Streptococcus pneumoniae): 0.06 µg/mL (≈ 0.2 µM)
- MIC90 (Proteus mirabilis): 2 µg/mL (≈ 6.68 µM)
- MIC90 (Klebsiella pneumoniae): 0.25 µg/mL (≈ 0.835 µM)
- MIC (Escherichia coli [7]): 0.12 µg/mL (≈ 0.401 µM)
- MIC (Pseudomonas aeruginosa [8]): 0.25 µg/mL (≈ 0.835 µM)
- MIC (Escherichia coli [22]): 0.5 µg/mL (≈ 1.67 µM)
- MIC90 (Enterococcus faecalis [9]): 2 µg/mL (≈ 6.68 µM)
- MIC90 [10]: > 64 µg/mL
- MIC90 (Streptococcus agalactiae): 0.015 µg/mL (≈ 0.0501 µM)
- MIC90 (Haemophilus influenzae): 1 µg/mL (≈ 3.34 µM)
- MIC (Enterococcus faecalis [11]): 0.5 µg/mL (≈ 1.67 µM)
- MIC90 (Providencia rettgeri): 1 µg/mL (≈ 3.34 µM)
- MIC90 (Providencia stuartii): 2 µg/mL (≈ 6.68 µM)
- MIC90 (Citrobacter freundii): 0.5 µg/mL (≈ 1.67 µM)
- MIC90 (Aeromonas sp.): 0.06 µg/mL (≈ 0.2 µM)
- MIC (Pseudomonas aeruginosa [13]): 0.25 µg/mL (≈ 0.835 µM)
- MIC (Staphylococcus aureus [14]): < 0.03 µg/mL
- MIC90 (Klebsiella aerogenes): 4 µg/mL (≈ 13.4 µM)
- MIC90 (Pseudomonas aeruginosa [15]): 8 µg/mL (≈ 26.7 µM)
- MIC (Escherichia coli [16]): 0.25 µg/mL (≈ 0.835 µM)
- MIC (Escherichia coli [17]): 0.25 µg/mL (≈ 0.835 µM)
- MIC90 (Staphylococcus aureus [18]): 0.015 µg/mL (≈ 0.0501 µM)
- MIC90 (Clostridium perfringens): 0.03 µg/mL (≈ 0.1 µM)
- MIC90 (Streptococcus pyogenes): 0.06 µg/mL (≈ 0.2 µM)
- MIC90 (Moraxella catarrhalis): 0.03 µg/mL (≈ 0.1 µM)
- MIC90 (Morganella morganii): 2 µg/mL (≈ 6.68 µM)
- MIC (Staphylococcus aureus [19]): < 0.03 µg/mL
- MIC90 (Bacteroides fragilis): 0.25 µg/mL (≈ 0.835 µM)
- MIC90 (Enterococcus faecium): > 64 µg/mL
- MIC (Staphylococcus aureus [20]): 0.25 µg/mL (≈ 0.835 µM)
- MIC90 [21]: 0.5 µg/mL (≈ 1.67 µM)

Compound: C[C@@H](O)[C@H]1C(=O)N2C(C(=O)O)=C(CN(C)CC(=O)N(C)C)SC12 (stereo partly specified)
- MIC (Escherichia coli [1]): 0.5 µg/mL (≈ 1.46 µM)
- MIC (Staphylococcus aureus [2]): 0.25 µg/mL (≈ 0.728 µM)
- MIC (Escherichia coli [3]): 1 µg/mL (≈ 2.91 µM)
- MIC (Escherichia coli [7]): 0.5 µg/mL (≈ 1.46 µM)
- MIC (Pseudomonas aeruginosa [8]): 0.5 µg/mL (≈ 1.46 µM)
- MIC (Escherichia coli [22]): 1 µg/mL (≈ 2.91 µM)
- MIC (Enterococcus faecalis [11]): 8 µg/mL (≈ 23.3 µM)
- MIC (Pseudomonas aeruginosa [12]): > 32 µg/mL
- MIC (Pseudomonas aeruginosa [13]): 4 µg/mL (≈ 11.6 µM)
- MIC (Staphylococcus aureus [14]): 0.12 µg/mL (≈ 0.349 µM)
- MIC (Escherichia coli [16]): 1 µg/mL (≈ 2.91 µM)
- MIC (Escherichia coli [17]): 1 µg/mL (≈ 2.91 µM)
- MIC (Staphylococcus aureus [19]): 0.25 µg/mL (≈ 0.728 µM)
- MIC (Staphylococcus aureus [20]): 4 µg/mL (≈ 11.6 µM)
